From PubChem BioAssay AID2060495 (Molecular Pharmacology Branch, DTP, NCI, 2025)
pIC50: −log10 of the molar value.

Test system: 521955-158-R2-J5-PDC complex spheroid viability
Experiment: Anticancer human tumor 521955-158-R2-J5-PDC patient-derived pancreatic carcinoma cell line growth inhibition [GQUAD]
Conditions: for pIC50: curve of first compound; for viability, T/C: stronger effect = lower value; active = viability on the fitted dose curve at most 10% of control; inactive = the rest
Outline: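 Tumor cells were grown as complex spheroids with HUVEC endothelial cells and mesenchymal stem cells as stroma. G-quadruplex stabilizers were combined with targeted agents over half-log dilutions from near the clinical Cmax, or from 10 microM.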

[1] = second compound 0.0316 µM, first compound 0.0316 µM
[2] = second compound 0.0316 µM, first compound 0.316 µM
[3] = second compound 0.1 µM, first compound 0.0316 µM
[4] = second compound 0.1 µM, first compound 0.316 µM
[5] = second compound 0.316 µM, first compound 0.0316 µM
[6] = second compound 0.316 µM, first compound 0.316 µM
[7] = second compound 1 µM, first compound 0.0316 µM
[8] = second compound 1 µM, first compound 0.316 µM
[9] = second compound 3.16 µM, first compound 0.0316 µM
[10] = second compound 3.16 µM, first compound 0.316 µM
[11] = second compound 10 µM, first compound 0.0316 µM
[12] = second compound 10 µM, first compound 0.316 µM
[13] = second compound 0.0316 µM, first compound 0.000999 µM
[14] = second compound 0.0316 µM, first compound 0.00316 µM
[15] = second compound 0.0316 µM, first compound 0.00999 µM
[16] = second compound 0.0316 µM, first compound 0.0999 µM
[17] = second compound 0.1 µM, first compound 0.000999 µM
[18] = second compound 0.1 µM, first compound 0.00316 µM
[19] = second compound 0.1 µM, first compound 0.00999 µM
[20] = second compound 0.1 µM, first compound 0.0999 µM
[21] = second compound 0.316 µM, first compound 0.000999 µM
[22] = second compound 0.316 µM, first compound 0.00316 µM
[23] = second compound 0.316 µM, first compound 0.00999 µM
[24] = second compound 0.316 µM, first compound 0.0999 µM
[25] = second compound 1 µM, first compound 0.000999 µM
[26] = second compound 1 µM, first compound 0.00316 µM
[27] = second compound 1 µM, first compound 0.00999 µM
[28] = second compound 1 µM, first compound 0.0999 µM
[29] = second compound 3.16 µM, first compound 0.000999 µM
[30] = second compound 3.16 µM, first compound 0.00316 µM
[31] = second compound 3.16 µM, first compound 0.00999 µM
[32] = second compound 3.16 µM, first compound 0.0999 µM
[33] = second compound 10 µM, first compound 0.000999 µM
[34] = second compound 10 µM, first compound 0.00316 µM
[35] = second compound 10 µM, first compound 0.00999 µM
[36] = second compound 10 µM, first compound 0.0999 µM
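Also: spheroids exposed to agents for one week before reading.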
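For viability, T/C in this document: 100% = DMSO vehicle control viability.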

Cc1cccc(N(C)C(=O)C2C(O)CCN2c2nc(C)cc(C(F)(F)F)c2C#N)c1 (stereo not drawn) + Cc1[nH]c2ccc(F)cc2c1-c1nc2c3cccnc3c3ncccc3c2[nH]1
< 5.00: pIC50 (second compound 0.0316 µM) | pIC50 (second compound 0.1 µM) | pIC50 (second compound 0.316 µM) | pIC50 (second compound 1 µM) | pIC50 (second compound 3.16 µM) | pIC50 (second compound 10 µM)
inactive: viability, T/C [1] 111% | viability, T/C (second compound 0.0316 µM, first compound 0.1 µM) 85.8% | viability, T/C [2] 110% | viability, T/C (second compound 0.0316 µM, first compound 1 µM) 107% | viability, T/C (second compound 0.0316 µM, first compound 3.16 µM) 110% | viability, T/C (second compound 0.0316 µM, first compound 10 µM) 123% | viability, T/C [3] 92.2% | viability, T/C (second compound 0.1 µM, first compound 0.1 µM) 109% | viability, T/C [4] 94.7% | viability, T/C (second compound 0.1 µM, first compound 1 µM) 106% | viability, T/C (second compound 0.1 µM, first compound 3.16 µM) 126% | viability, T/C (second compound 0.1 µM, first compound 10 µM) 120% | viability, T/C [5] 91.1% | viability, T/C (second compound 0.316 µM, first compound 0.1 µM) 93.5% | viability, T/C [6] 101% | viability, T/C (second compound 0.316 µM, first compound 1 µM) 114% | viability, T/C (second compound 0.316 µM, first compound 3.16 µM) 112% | viability, T/C (second compound 0.316 µM, first compound 10 µM) 111% | viability, T/C [7] 92.7% | viability, T/C (second compound 1 µM, first compound 0.1 µM) 100% | viability, T/C [8] 108% | viability, T/C (second compound 1 µM, first compound 1 µM) 105% | viability, T/C (second compound 1 µM, first compound 3.16 µM) 128% | viability, T/C (second compound 1 µM, first compound 10 µM) 115% | viability, T/C [9] 110% | viability, T/C (second compound 3.16 µM, first compound 0.1 µM) 88.2% | viability, T/C [10] 92.5% | viability, T/C (second compound 3.16 µM, first compound 1 µM) 91.8% | viability, T/C (second compound 3.16 µM, first compound 3.16 µM) 132% | viability, T/C (second compound 3.16 µM, first compound 10 µM) 120% | viability, T/C [11] 115% | viability, T/C (second compound 10 µM, first compound 0.1 µM) 104% | viability, T/C [12] 104% | viability, T/C (second compound 10 µM, first compound 1 µM) 122% | viability, T/C (second compound 10 µM, first compound 3.16 µM) 126% | viability, T/C (second compound 10 µM, first compound 10 µM) 113%

CC[C@@]1(O)C(=O)OCc2c1cc1n(c2=O)Cc2cc3c(CN(C)C)c(O)ccc3nc2-1 + Cc1[nH]c2ccc(F)cc2c1-c1nc2c3cccnc3c3ncccc3c2[nH]1
active: viability, T/C [8] 9.43%
7.17: pIC50 (second compound 1 µM)
inactive: viability, T/C [13] 108% | viability, T/C [14] 96.6% | viability, T/C [15] 123% | viability, T/C [1] 69.8% | viability, T/C [16] 29% | viability, T/C [2] 9.65% | viability, T/C [17] 90.7% | viability, T/C [18] 115% | viability, T/C [19] 100% | viability, T/C [3] 91.8% | viability, T/C [20] 26% | viability, T/C [4] 10.2% | viability, T/C [21] 104% | viability, T/C [22] 120% | viability, T/C [23] 109% | viability, T/C [5] 84.7% | viability, T/C [24] 30.9% | viability, T/C [6] 9.94% | viability, T/C [25] 115% | viability, T/C [26] 97% | viability, T/C [27] 115% | viability, T/C [7] 95.3% | viability, T/C [28] 26.1% | viability, T/C [29] 115% | viability, T/C [30] 108% | viability, T/C [31] 103% | viability, T/C [9] 70.8% | viability, T/C [32] 34.1% | viability, T/C [10] 10.8% | viability, T/C [33] 91.8% | viability, T/C [34] 98% | viability, T/C [35] 97.9% | viability, T/C [11] 84.7% | viability, T/C [36] 33.8% | viability, T/C [12] 15.6%
7.27: pIC50 (second compound 0.0316 µM)
7.18: pIC50 (second compound 0.1 µM) | pIC50 (second compound 0.316 µM)
7.21: pIC50 (second compound 3.16 µM)
7.16: pIC50 (second compound 10 µM)

Cn1ncnc1[C@H]1c2n[nH]c(=O)c3cc(F)cc(c23)N[C@@H]1c1ccc(F)cc1 + Cc1[nH]c2ccc(F)cc2c1-c1nc2c3cccnc3c3ncccc3c2[nH]1
< 6.50: pIC50 (second compound 0.0316 µM) | pIC50 (second compound 0.1 µM) | pIC50 (second compound 0.316 µM) | pIC50 (second compound 1 µM) | pIC50 (second compound 3.16 µM) | pIC50 (second compound 10 µM)
inactive: viability, T/C [13] 95.7% | viability, T/C [14] 86.3% | viability, T/C [15] 93.5% | viability, T/C [1] 91% | viability, T/C [16] 73.2% | viability, T/C [2] 59.8% | viability, T/C [17] 89.4% | viability, T/C [18] 106% | viability, T/C [19] 90.9% | viability, T/C [3] 80.4% | viability, T/C [20] 91.1% | viability, T/C [4] 74.4% | viability, T/C [21] 94.3% | viability, T/C [22] 96% | viability, T/C [23] 83.6% | viability, T/C [5] 88.7% | viability, T/C [24] 70.4% | viability, T/C [6] 73.1% | viability, T/C [25] 91.7% | viability, T/C [26] 93.7% | viability, T/C [27] 91% | viability, T/C [7] 74.2% | viability, T/C [28] 102% | viability, T/C [8] 73.6% | viability, T/C [29] 93% | viability, T/C [30] 107% | viability, T/C [31] 83.9% | viability, T/C [9] 86.8% | viability, T/C [32] 70.8% | viability, T/C [10] 69.8% | viability, T/C [33] 92.7% | viability, T/C [34] 80.5% | viability, T/C [35] 82.6% | viability, T/C [11] 86.1% | viability, T/C [36] 77.8% | viability, T/C [12] 68.1%

Cn1ncnc1[C@H]1c2n[nH]c(=O)c3cc(F)cc(c23)N[C@@H]1c1ccc(F)cc1 + Cc1cnc(CNC(=O)c2c(=O)c3ccc(N4CCCN(C)CC4)nc3n3c2sc2ccccc23)cn1
< 6.50: pIC50 (second compound 0.0316 µM)
6.50: pIC50 (second compound 0.1 µM)
inactive: viability, T/C [13] 85.8% | viability, T/C [14] 70.8% | viability, T/C [15] 67.1% | viability, T/C [1] 62% | viability, T/C [16] 53.9% | viability, T/C [2] 57.5% | viability, T/C [17] 62.3% | viability, T/C [18] 77.7% | viability, T/C [19] 54.8% | viability, T/C [3] 48.2% | viability, T/C [20] 54.2% | viability, T/C [4] 55.5% | viability, T/C [21] 44.1% | viability, T/C [22] 48.6% | viability, T/C [23] 44.7% | viability, T/C [5] 34.2% | viability, T/C [24] 31.3% | viability, T/C [6] 24.3% | viability, T/C [25] 26.8% | viability, T/C [26] 25.1% | viability, T/C [27] 23.1% | viability, T/C [7] 20% | viability, T/C [28] 21% | viability, T/C [8] 16.6% | viability, T/C [29] 16% | viability, T/C [30] 19.6% | viability, T/C [31] 20.8% | viability, T/C [9] 20.4% | viability, T/C [32] 15.3% | viability, T/C [10] 14% | viability, T/C [33] 20.7% | viability, T/C [34] 15.7% | viability, T/C [35] 21.8% | viability, T/C [11] 19.8% | viability, T/C [36] 15.7% | viability, T/C [12] 17.2%
> 9.00: pIC50 (second compound 0.316 µM) | pIC50 (second compound 1 µM) | pIC50 (second compound 3.16 µM) | pIC50 (second compound 10 µM)
